For assay [1], the target named is T1, CDK2/CyclinE (Homo sapiens, UniProt P24941).
T1 construct: GST; purchased ProQinase GmbH (Freiburg, Germany); host or cells: insect cells (Sf9)
Nature of the assay: CDK2/CycE kinase assay (TR-FRET). It counts as biochemical. The note with it: 2 mM ATP (high ATP); median; read-out: CDK2/CyclinE, 2 mM ATP (high ATP) IC50 - [mol/l] (median). An excerpt: 2.4 CDK2/CycE Kinase Assay
CDK2/CycE-inhibitory activity of compounds of the present invention was quantified employing the CDK2/CycE TR-FRET assay as described in the following paragraphs.
Recombinant fusion proteins of GST and human CDK2 and of GST and human CycE, expressed in insect cells (Sf9) and purified by Glutathion-Sepharose affinity chromatography, were purchased from ProQinase GmbH (Freiburg, Germany). As substrate for the kinase reaction biotinylated peptide biotin-Ttds-YISPLKSPYKISEG (C-terminus in amid form) was used which can be purchased e.g. form the company JERINI peptide technologies (Berlin, Germany).
For the assay 50 nanoL of a 100 fold concentrated solution of the test compound in DMSO was pipetted into a black low volume 384 well microtiter plate or a black 1536 well microtiter plate (both Greiner Bio-One, Frickenhausen, Germany), 2 microL of a solution of CDK2/CycE in aqueous assay buffer [50 millimol/L Tris/HCl pH 8.0, 10 millimol/L MgCl2, 1.0 millimol/L dithiothreitol, 0.1 millimol/L sodium ortho-vanadate, 0.01% (v/v) Nonidet-P40 (Sigma)] were added and the mixture was incubated for 15 min at 22° C. to allow pre-binding of the test compounds to the enzyme before the start of the kinase reaction. Then the kinase reaction was started by the addition of 3 microL of a solution of adenosine-tri-phosphate (ATP, 3.33 millimol/L=>final conc. in the 5 microL assay volume is 2 millimol/L) and substrate (1.25 micromol/L=>final conc. in the 5 microL assay volume is 0.75 micromol/L) in assay buffer and the resulting mixture was incubated for a reaction time of 25 min at 22° C. The concentration of CDK2/CycE was adjusted depending of the activity of the enzyme lot and was chosen appropriate to have the assay in the linear range, typical concentrations were in the range of 10 ng/mL. The reaction was stopped by the addition of 3 microL of a solution of TR-FRET detection reagents (0.333 micromol/L streptavidine-XL665 [Cisbio Bioassays, Codolet, France] and 1.67 nanomol/L anti-RB(pSer807/pSer811)-antibody from BD Pharmingen [#558389] and 2 nanomol/L LANCE EU-W1024 labeled anti-mouse IgG antibody [Perkin-Elmer, product no. AD0077, as an alternative a Terbium-cryptate-labeled anti-mouse IgG antibody from Cisbio Bioassays can be used]) in an aqueous EDTA-solution (167 millimol/L EDTA, 0.2% (w/v) bovine serum albumin in 100 millimol/L HEPES pH 7.5).
(§1) The resulting mixture was incubated 1 h at 22° C. to allow the formation of complex between the phosphorylated biotinylated peptide and the detection reagents. Subsequently the amount of phosphorylated substrate was evaluated by measurement of the resonance energy transfer from the Eu-chelate to the streptavidine-XL. Therefore, the fluorescence emissions at 620 nm and 665 nm after excitation at 350 nm was measured in a TR-FRET reader, e.g. a Pherastar (BMG Labtechnologies, Offenburg, Germany) or a Viewlux (Perkin-Elmer). The ratio of the emissions at 665 nm and at […] was taken as the measure for the amount of phosphorylated substrate. The data were normalised (enzyme reaction without inhibitor=0% inhibition, all other assay components but no enzyme=100% inhibition).
In general terms: In TR-FRET formats the signal depends on donor and acceptor labels being close together.

Assay [2] deals with T2, CDK9/CyclinT1 (Homo sapiens, UniProt P50750).
T2 construct: Recombinant full-length His-tagged human CDK9 and CycT1; His-tag; purchased Life Technologies PV4131; host or cells: insect cells
T2 sequence (P50750 whole entry): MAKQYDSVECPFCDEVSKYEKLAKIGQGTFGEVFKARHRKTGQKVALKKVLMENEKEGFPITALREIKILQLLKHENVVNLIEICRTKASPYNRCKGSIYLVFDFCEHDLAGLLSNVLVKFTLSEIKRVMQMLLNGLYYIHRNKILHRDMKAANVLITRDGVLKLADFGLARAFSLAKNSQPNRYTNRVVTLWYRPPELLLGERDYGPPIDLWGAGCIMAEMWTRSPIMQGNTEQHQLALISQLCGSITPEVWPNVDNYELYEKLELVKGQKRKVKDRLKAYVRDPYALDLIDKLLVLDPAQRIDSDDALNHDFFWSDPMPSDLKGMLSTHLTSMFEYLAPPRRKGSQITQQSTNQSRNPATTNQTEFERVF
T2 sequence (O60563 whole entry partner): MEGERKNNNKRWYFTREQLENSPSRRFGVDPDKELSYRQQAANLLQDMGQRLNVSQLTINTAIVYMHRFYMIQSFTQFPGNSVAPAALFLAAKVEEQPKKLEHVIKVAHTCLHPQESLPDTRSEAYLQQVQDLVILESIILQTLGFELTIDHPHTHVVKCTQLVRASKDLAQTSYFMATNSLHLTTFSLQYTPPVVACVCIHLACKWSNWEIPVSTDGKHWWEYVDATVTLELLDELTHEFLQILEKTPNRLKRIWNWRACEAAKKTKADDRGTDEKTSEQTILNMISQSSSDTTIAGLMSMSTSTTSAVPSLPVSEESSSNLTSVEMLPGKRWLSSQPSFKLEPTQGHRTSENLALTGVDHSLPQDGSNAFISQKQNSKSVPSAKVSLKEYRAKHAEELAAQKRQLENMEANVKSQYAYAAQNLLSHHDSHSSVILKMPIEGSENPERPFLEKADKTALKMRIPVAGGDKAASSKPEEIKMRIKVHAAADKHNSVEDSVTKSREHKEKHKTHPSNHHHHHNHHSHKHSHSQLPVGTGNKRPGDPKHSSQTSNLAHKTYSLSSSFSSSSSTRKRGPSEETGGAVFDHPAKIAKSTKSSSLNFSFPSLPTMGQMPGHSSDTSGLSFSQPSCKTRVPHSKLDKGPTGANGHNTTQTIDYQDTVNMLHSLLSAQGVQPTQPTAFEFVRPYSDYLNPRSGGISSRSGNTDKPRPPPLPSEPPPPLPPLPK
Nature of the assay: CDK9/CycT1 high ATP kinase assay (TR-FRET). The settings on record: 2 mM ATP (high ATP); median; read-out: CDK9/CyclinT1, 2 mM ATP (high ATP) IC50 - [mol/l] (median). It is filed as biochemical. The protocol: 2.5 CDK9/CycT1 High ATP Kinase Assay
CDK9/CycT1 -inhibitory activity of compounds of the present invention at a high ATP concentration after preincubation of enzyme and test compounds was quantified employing the CDK9/CycT1 TR-FRET assay as described in the following paragraphs.
Recombinant full-length His-tagged human CDK9 and CycT1, expressed in insect cells and purified by Ni-NTA affinity chromatography, were purchased from Life Technologies (Cat. No PV4131). As substrate for the kinase reaction biotinylated peptide biotin-Ttds-YISPLKSPYKISEG (C-terminus in amide form) was used which can be purchased e.g. form the company JERINI peptide technologies (Berlin, Germany).
For the assay 50 nanoL of a 100 fold concentrated solution of the test compound in DMSO was pipetted into either a black low volume 384 well microtiter plate or a black 1536 well microtiter plate (both Greiner Bio-One, Frickenhausen, Germany), 2 microL of a solution of CDK9/CycT1 in aqueous assay buffer [50 millimol/L Tris/HCl pH 8.0, 10 millimol/L MgCl2, 1.0 millimol/L dithiothreitol, 0.1 millimol/L sodium ortho-vanadate, 0.01% (v/v) Nonidet-P40 (Sigma)] were added and the mixture was incubated for 15 min at 22° C. to allow pre-binding of the test compounds to the enzyme before the start of the kinase reaction. Then the kinase reaction was started by the addition of 3 microL of a solution of adenosine-tri-phosphate (ATP, 3.3 millimol/L=>final conc. in the 5 microL assay volume is 2 millimol/L) and substrate (1.25 micromol/L =>final conc. in the 5 microL assay volume is 0.75 micromol/L) in assay buffer and the resulting mixture was incubated for a reaction time of 25 min at 22° C. The concentration of CDK9/CycT1 was adjusted depending of the activity of the enzyme lot and was chosen appropriate to have the assay in the linear range, typical concentrations were in the range of 0.5 microg/mL. The reaction was stopped by the addition of 3 microL of a solution of TR-FRET detection reagents (0.33 micromol/L streptavidine-XL665 [Cisbio Bioassays, Codolet, France] and 1.67 nanomol/L anti-RB(pSer807/pSer811)-antibody from BD Pharmingen [#558389] and 2 nanomol/L LANCE EU-W1024 labeled anti-mouse IgG antibody [Perkin-Elmer, product no. AD0077]) in an aqueous EDTA-solution (167 millimol/L EDTA, 0.2% (w/v) bovine serum albumin in 100 millimol/L HEPES pH 7.5).
as §1

Take `CN1CCC(n2nc(NCc3nc4cc(Cl)c(F)cc4[nH]3)c3ncc(C4CC4)nc32)CC1` [Example 29, N-[(5-chloro-6-fluoro-1H-benzimidazol-2-yl)methyl]-6-cyclopropyl-1-(1-methylpiperidin-4-yl)-1H-pyrazolo[3,4-b]pyrazin-3-amine]: the IC50 in assay [1] and in assay [2] was more than 20 µM throughout.

In the case of `O[C@H]1CC[C@@H](n2nc(NCc3nc4ccccc4[nH]3)c3ncc(C4CC4)nc32)CC1` [Example 51, cis-4-(3-{[(1H-benzimidazol-2-yl)methyl]amino}-6-cyclopropyl-1H-pyrazolo[3,4-b]pyrazin-1-yl)cyclohexan-1-ol], the IC50 in assay [1] and in assay [2] was more than 20 µM in each case.

Consider `CN1CCCC(n2nc(NCc3nc4ccccc4[nH]3)c3ncc(C4CC4)nc32)CC1` (single isomer, unassigned) [Example 38, (−) or (+)-N-[(1H-benzimidazol-2-yl)methyl]-6-cyclopropyl-1-[(4R*)-1-methylazepan-4-yl]-1H-pyrazolo[3,4-b]pyrazin-3-amine], for which the IC50 in assay [1] and in assay [2] was more than 20 µM in each case.

Consider `Cc1ccc2[nH]c(CNc3nn(C4CCN(C)CC4)c4nc(C5CC5)cnc34)nc2c1C` [Example 28, 6-cyclopropyl-N-[(4,5-dimethyl-1H-benzimidazol-2-yl)methyl]-1-(1-methylpiperidin-4-yl)-1H-pyrazolo[3,4-b]pyrazin-3-amine], for which the IC50 in assay [1] and in assay [2] was more than 20 µM each time.

As for `O[C@H]1C[C@@H](n2nc(NCc3nc4ccccc4[nH]3)c3ncc(C4CC4)nc32)C1` [Example 40, cis-3-(3-{[(1H-benzimidazol-2-yl)methyl]amino}-6-cyclopropyl-1H-pyrazolo[3,4-b]pyrazin-1-yl)cyclobutan-1-ol], the IC50 in assay [1] and in assay [2] was more than 20 µM throughout.

For `O[C@H]1C[C@@H](Cn2nc(NCc3nc4ccccc4[nH]3)c3ncc(C4CC4)nc32)C1` [Example 71, cis-3-[(3-{[(1H-benzimidazol-2-yl)methyl]amino}-6-cyclopropyl-1H-pyrazolo[3,4-b]pyrazin-1-yl)methyl]cyclobutan-1-ol], the IC50 in assay [1] and in assay [2] was more than 20 µM throughout.

For `c1ccc2[nH]c(CNc3nn(C4CCNCC4)c4nc(C5CC5)cnc34)nc2c1` [Example 12, N-[(1H-benzimidazol-2-yl)methyl]-6-cyclopropyl-1-(piperidin-4-yl)-1H-pyrazolo[3,4-b]pyrazin-3-amine], the IC50 in assay [1] and in assay [2] was more than 20 µM throughout.

In the case of `O[C@H]1CC[C@H](n2nc(NCc3nc4cc(F)ccc4[nH]3)c3ncc(C4CC4)nc32)CC1` [Example 56, trans-4-(6-cyclopropyl-3-{[(5-fluoro-1H-benzimidazol-2-yl)methyl]amino}-1H-pyrazolo[3,4-b]pyrazin-1-yl)cyclohexan-1-ol], the IC50 in assay [1] and in assay [2] was more than 20 µM each time.

For `CN1CCC(n2nc(NCc3nc4c(Br)cccc4[nH]3)c3ncc(C4CC4)nc32)CC1` [Example 20, N-[(4-bromo-1H-benzimidazol-2-yl)methyl]-6-cyclopropyl-1-(1-methylpiperidin-4-yl)-1H-pyrazolo[3,4-b]pyrazin-3-amine], the IC50 in assay [1] and in assay [2] was more than 20 µM throughout.

For `Cn1nc(NCc2nc3ccccc3[nH]2)c2ncc(C3CC3)nc21` [Example 15, N-[(1H-benzimidazol-2-yl)methyl]-6-cyclopropyl-1-methyl-1H-pyrazolo[3,4-b]pyrazin-3-amine], the IC50 in assay [1] and in assay [2] was more than 20 µM each time.

As to `Fc1cccc2[nH]c(CNc3nn(C4CCOCC4)c4nc(C5CC5)cnc34)nc12` [Example 23, 6-cyclopropyl-N-[(4-fluoro-1H-benzimidazol-2-yl)methyl]-1-(oxan-4-yl)-1H-pyrazolo[3,4-b]pyrazin-3-amine], the IC50 in assay [1] is 16.4 µM; in assay [2] it was more than 20 µM.

For `c1ccc2[nH]c(CNc3nn(C4CCCC4)c4nc(C5CC5)cnc34)nc2c1` [Example 39, N-[(1H-benzimidazol-2-yl)methyl]-1-cyclopentyl-6-cyclopropyl-1H-pyrazolo[3,4-b]pyrazin-3-amine], the IC50 in assay [1] and in assay [2] was more than 20 µM throughout.

In the case of `c1ccc2[nH]c(CNc3nn(C4CCOC4)c4nc(C5CC5)cnc34)nc2c1` (racemic) [Example 10, (±)-N-[(1H-benzimidazol-2-yl)methyl]-6-cyclopropyl-1-[oxolan-3-yl]-1H-pyrazolo[3,4-b]pyrazin-3-amine], the IC50 in assay [1] and in assay [2] was more than 20 µM in each case.

Consider `Cc1c(Cl)ccc2[nH]c(CNc3nn(C4CCN(C)CC4)c4nc(C5CC5)cnc34)nc12` [Example 21, N-[(5-chloro-4-methyl-1H-benzimidazol-2-yl)methyl]-6-cyclopropyl-1-(1-methylpiperidin-4-yl)-1H-pyrazolo[3,4-b]pyrazin-3-amine], for which the IC50 in assay [1] and in assay [2] was more than 20 µM in each case.

As for `CN1CCC(n2nc(NCc3nc4c(C(F)(F)F)cccc4[nH]3)c3ncc(C4CC4)nc32)CC1` [Example 7, 6-cyclopropyl-1-(1-methylpiperidin-4-yl)-N-{[4-(trifluoromethyl)-1H-benzimidazol-2-yl]methyl}-1H-pyrazolo[3,4-b]pyrazin-3-amine], the IC50 in assay [1] and in assay [2] was more than 20 µM each time.

As for `c1ccc2[nH]c(CNc3nn(C4C[C@H]5CC[C@@H](C4)O5)c4nc(C5CC5)cnc34)nc2c1` (stereo partly drawn) [Example 45, exo/endo-N-[(1H-benzimidazol-2-yl)methyl]-6-cyclopropyl-1-(8-oxabicyclo[3.2.1]octan-3-yl)-1H-pyrazolo[3,4-b]pyrazin-3-amine], the results for the IC50 in assay [1] and in assay [2] were more than 18.2 µM and more than 20 µM, respectively.

The record behind these values is patent publication US20230192700A1, “PYRAZOLOPYRAZINES ACTING ON CANCERS VIA INHIBITION OF CDK12” (Bayer Aktiengesellschaft, priority 2020, published 2023).
